Measured values taken from the Deep4Chem optical property database.
Blank lines part the entries; values can stand above or below the compound they belong to.

Assay: photoluminescence quantum yield (fraction); solvent given as SMILES
[1] = in O=P(c1ccccc1)(c1ccccc1)c1ccccc1Oc1ccccc1P(=O)(c1ccccc1)c1ccccc1

Structure (SMILES): COCCOCCOCCOCC(COCCOCCOCCOC)Oc1cc(/C=C/c2ccc(/C=C(\C#N)C(=O)c3ccccc3)cc2)c(OC(COCCOCCOCCOC)COCCOCCOCCOC)cc1/C=C/c1ccc(/C=C(\C#N)C(=O)c2ccccc2)cc1
- photoluminescence quantum yield (in ClCCl): 0.23

Structure (SMILES): [O-]c1ccccc1-c1[nH+]c2c3ccccc3c3ccccc3c2n1-c1ccccc1
- photoluminescence quantum yield (in Cc1ccccc1): 0.191

Structure (SMILES): CC(C)(C)c1ccc2c(c1)c1cc(C(C)(C)C)ccc1n2-c1cc[n+]2c(c1)-c1ccccc1O[B-]2(F)F
- photoluminescence quantum yield [1]: 0.74

Structure (SMILES): CCN(CC)c1ccc2cc(/C(Cl)=C/C=C/C(=C(C#N)C#N)c3ccc(N(c4ccccc4)c4ccccc4)cc3)c(=O)oc2c1
- photoluminescence quantum yield (in CC(C)=O): 0.015
- photoluminescence quantum yield (in CCOC(C)=O): 0.028
- photoluminescence quantum yield (in CN(C)C=O): 0.002
- photoluminescence quantum yield (in CS(C)=O): 0.003
- photoluminescence quantum yield (in Cc1ccccc1): 0.098
- photoluminescence quantum yield (in ClCCl): 0.018

Structure (SMILES): C(=C\c1ccc(-c2ccncc2)cc1)/c1ccc(-c2ccncc2)cc1
- photoluminescence quantum yield (in ClCCl): 0.97

Structure (SMILES): O=C1c2ccc(-c3ccc(N(c4ccccc4)c4ccccc4)cc3)cc2C(=O)c2ccc(-c3ccc(N(c4ccccc4)c4ccccc4)cc3)cc21
- photoluminescence quantum yield (in Cc1ccccc1): 0.59
- photoluminescence quantum yield (in c1ccc2c(c1)c1ccccc1n2-c1ccc(-c2ccc(-n3c4ccccc4c4ccccc43)cc2)cc1): 0.8

Structure (SMILES): c1ccc(-n2c(-c3ccc(N(c4ccc(-c5ccc(N(c6ccc(-c7nc8c9ccccc9c9ccccc9c8n7-c7ccccc7)cc6)c6ccc(-c7nc8c9ccccc9c9ccccc9c8n7-c7ccccc7)cc6)cc5)cc4)c4ccc(-c5nc6c7ccccc7c7ccccc7c6n5-c5ccccc5)cc4)cc3)nc3c4ccccc4c4ccccc4c32)cc1
- photoluminescence quantum yield (in ClCCl): 0.206

Structure (SMILES): Cc1cc(-n2c3ccccc3c3cc4c(cc32)C2c3ccccc3C4c3ccccc32)ccc1-c1nc(-c2ccccc2)nc(-c2ccccc2)n1
- photoluminescence quantum yield (in Cc1ccccc1): 0.8
- photoluminescence quantum yield [1]: 0.51

Structure (SMILES): CNc1cccc2c1C(=O)c1ccccc1C2=O
- photoluminescence quantum yield (in C1CCC2CCCCC2C1): 0.014
- photoluminescence quantum yield (in C1CCCCC1): 0.0135
- photoluminescence quantum yield (in CC1CCCCC1): 0.0138
- photoluminescence quantum yield (in CC#N): 0.0026
- photoluminescence quantum yield (in CCC(C)CC): 0.0136
- photoluminescence quantum yield (in CCCCCC): 0.0136
- photoluminescence quantum yield (in CCOC(C)=O): 0.0048

Structure (SMILES): c1ccc(-c2nc(-c3ccccc3)nc(-c3cc(-n4c5ccccc5c5ccccc54)c(-n4c5ccccc5c5ncccc54)c(-n4c5ccccc5c5ccccc54)c3)n2)cc1
- photoluminescence quantum yield (in O=P(c1ccccc1)(c1ccccc1)c1ccc2oc3ccc(P(=O)(c4ccccc4)c4ccccc4)cc3c2c1): 0.79

Second part, the compound after the results:

- photoluminescence quantum yield (in CCCCCC): 0.49
- photoluminescence quantum yield (in CO): 0.6
- photoluminescence quantum yield (in ClCCl): 0.43
Structure (SMILES): CCCCc1ccc2ccc3c(CCCC)cc(CCCC)c4ccc1c2c34

- photoluminescence quantum yield (in C1CCOC1): 0.016
- photoluminescence quantum yield (in CC#N): 0.013
- photoluminescence quantum yield (in CCO): 0.0088
- photoluminescence quantum yield (in CN(C)C=O): 0.0057
- photoluminescence quantum yield (in CO): 0.0069
- photoluminescence quantum yield (in CS(C)=O): 0.0056
Structure (SMILES): CSc1sc(C(=O)c2ccccc2)c2nn[nH]c(=O)c12

- photoluminescence quantum yield (in ClCCl): 0.09
Structure (SMILES): COc1cccc(C2=C3C=C(/C=C/C(=O)OC(C)(C)C)C=[N+]3[B-](F)(F)n3cccc32)c1

- photoluminescence quantum yield (in ClCCl): 0.047
Structure (SMILES): CCOC(=O)/N=c1/oc2ccc(OC)cc2cc1C#N

- photoluminescence quantum yield (in C1CCCCC1): 0.8
- photoluminescence quantum yield (in CC#N): 0.66
- photoluminescence quantum yield (in CO): 0.1
- photoluminescence quantum yield (in ClC(Cl)Cl): 0.85
Structure (SMILES): CN(C)c1ccc2nc(-c3ccc(C=O)cc3)sc2c1

- photoluminescence quantum yield (in ClCCl): 0.3
Structure (SMILES): CCN(CC)c1ccc2c(-c3ccccc3C(=O)O)c3c([o+]c2c1)/C(=C/c1nc(C)n2ccccc12)CCC3

- photoluminescence quantum yield (in CC1CCCO1): 0.52
Structure (SMILES): O=c1cc2cc(O)c3c(O)ccc4ccc(o1)c2c43

- photoluminescence quantum yield (in CC#N): 0.026
- photoluminescence quantum yield (in CCCCCC): 0.024
Structure (SMILES): COc1ccc(-n2c(C)ccc2C)cc1

- photoluminescence quantum yield (in ClCCl): 0.1
Structure (SMILES): COc1ccc2c(c1)c1cc(OC)ccc1c1c2c2c(C(=O)NC(C)(C)C)ccc(C(=O)NC(C)(C)C)c2c2c3ccc(OC)cc3c3cc(OC)ccc3c21

- photoluminescence quantum yield (in CC#N): 0.61
- photoluminescence quantum yield (in ClCCl): 0.51
Structure (SMILES): COC(=O)c1cc(=O)n(C)c2cc(-c3ccccc3OC)sc12

- photoluminescence quantum yield (in ClCCl): 0.04
Structure (SMILES): CCN(CC)c1ccc2c(c1)oc(=O)c1c(=O)oc3cc(C#Cc4ccc(N(C)C)cc4)ccc3c12
